For assay [1], the system named is Sprague-Dawley rats, compression of T8 spinal cord. Put plainly: Mitochondrial ROS production after traumatic spinal cord injury. It counts as in vivo, rat. The conditions noted are these: 50 mg/kg ip immediately after injury; analyzed 48 hr later. The procedure:
Adult rats received compression injury at the level of T8 spinal cord, alone (control) or with injections of 2-Hydroxy-TTBA (50 mg/kg, ip) and Mitotracker CM-H2X ROS immediately after injury. Animals were euthanized 2 d later, spinal cord sections sections immunostained with an antibody for NeuN (a neuronal marker protein), and levels of mitochondrial ROS in the dorsal horn neurons (DHN) analyzed by measuring fluorescence intensity of oxidized Mitotracker CM-H2X, mean ±S.E.M. [n=12 rats for each condition (5 spinal cord sections for each rat)]. *, Significant difference from the vehicle control, p<0.05 using the independent t-test.
Sprague-Dawley rats (250-300 g, female) received traumatic spinal cord injury by compression of the dorsal spinal cord. T8 segment of spinal cord was exposed on the dorsal side, compressed with 20 g for 10 min, and then mitochondrial CM-H2X Ros was immediately injected into the spinal cord. 2-Hydroxy-TTBA (50 mg/kg, ip) or a vehicle control (control) was injected with mitochondrial CM-H2X Ros. Levels of mitochondrial ROS in the dorsal horn neurons were analyzed 48 hr later as described above after immunolabeling with anti-NeuN antibody, a neuron-specific marker.

Assay [2] concerns Mouse cortical cell cultures. Description: Zinc neurotoxicity in mixed cortical cell cultures (LDH assay). It counts as cell-based. The note with it: 100 μM ZnCl2 for 30 min, concurrent treatment; LDH 24 hr later. On the procedure:
Mouse cortical cell cultures (DIV 12-14) were exposed to […] for 30 min, alone or with inclusion of 3-300 μM 2-Hydroxy-TTBA. Neuronal death was analyzed 24 hr later by measuring levels of LDH released into the bathing medium, mean ±SEM (n=9-12 culture wells per condition), scaled to mean LDH efflux value 24 hr after sham wash (=0) and continuous exposure to 500 μM NMDA (=100).
For mixed neuron-glia culture, mouse cerebral cortices were removed from brains of the 14-16 day-old-fetal mice (E14-16), gently triturated and plated on 24 well plates (2×10^5 cells/plate) precoated with 100 μg/ml poly-D-lysine and 4 μg/ml laminine. Cultures were maintained at 37° C. in a humidified 5% CO2 atmosphere. […]
After 7-8 days in vitro (DIV 7-8), 10 μM cytosine arabinofuranoside (Ara-C) was included to halt overgrowth of glia. […] Overall neuronal cell injury was assessed by measuring amount of lactate dehydrogenase (LDH) released into the bathing medium 24 hr after neurotoxic insults as previously described [Koh and Choi, J Neurosci Methods 20:83-90, 1987].
To induce zinc (Zn^2+) neurotoxicity, mixed cortical cell cultures were exposed to 100 μM ZnCl2 for 30 min in a HEPES-buffered control salt solution (HCSS): (in mM) 120 NaCl, 5 KCl, 1.6 MgCl2, 2.3 CaCl2, 15 glucose, 20 HEPES and 10 NaOH, alone or with 3-300 uM 2-Hydroxy-TTBA. […] Neuronal cell death was analyzed 24 hr later by LDH assay. […]

A short description of assay [3]: DPPH free radical scavenging assay. It counts as biochemical. The conditions noted are these: 100 μM DPPH in ethanol; absorption at 517 nm; 1-100 μM. On the procedure:
2-Hydroxy-TTBA (●) or trolox (◯) was reacted with 100 uM 1,1-diphenyl-2-picrylhydrazil (DPPH, a stable free radical) dissolved in ethanol for […]. The radical scavenging activity was determined by measuring the decrease in DPPH levels at 517 nm. *, Significant difference from the vehicle control, p<0.05 using ANOVA and Student-Neuman-Keuls' test.
2-Hydroxy-TTS (●), 2-Hydroxy-TTA (◯), 2-Chloro-TTP (▾) or control (∇) was reacted with 100 uM DPPH dissolved in ethanol. The radical scavenging activity was determined by measuring the decrease in DPPH levels at 517 nm. *, Significant difference from the vehicle control, p<0.05 using ANOVA and Student-Neuman-Keuls' test.
To examine the free radical scavenging effects, 1-100 μM 2-Hydroxy-TTBA, 2-Hydroxy-TTA, 2-Hydroxy-TTS, 2-Chloro-TTP or trolox was reacted with 100 μM DPPH (2,2-diphenyl-1-picryl-hydrazyl radical), a stable free radical, dissolved in ethanol. After incubation for 30 min, relative decrease in DPPH absorption at 517 nm was measured by a spectrophotometer, mean ±SEM (n=3 test tubes per condition). *, Significant difference from the vehicle control (DPPH alone), p<0.05 using ANOVA and Student-Neuman-Keuls' test.
(In general: Loss of DPPH colour is used to gauge radical scavenging.)

Assay [4] deals with Sprague-dawley rats, four-vessel occlusion. Put plainly: CA1 neuronal cell death after transient forebrain ischemia. Format: in vivo, rat. The conditions noted are these: 50 mg/kg ip; 10 min four-vessel occlusion; analyzed 3 d later. The procedure: Adult rats received transient global ischemia for 10 min, with intraperitoneal injections of vehicle (control) or 2-Hydroxy-TTBA (50 mg/kg) at 5 min after reperfusion. The number of degenerating neurons in the CA1 was analyzed 3 d later by counting viable neurons after staining with cresyl violet, mean ±S.E.M. *, Significant difference from the vehicle control, p<0.05 using the independent t-test.
Male adult Sprague-dawley rats (250-300 g) were anesthetized with chloral hydrate and subjected to four-vessel occlusion model (occlusion of both common carotid arteries and vertebral arteries) as previously described [Pulsinelli and Brierley, stroke 10: 267-272 (1979)].
Rats received four-vessel occlusion for 10 min followed by administration of saline (control) or 2-Hydroxy-TTBA (50 mg/kg, ip). Animals were euthanized 3 d later and processed for analysis of neuronal death in the CA1 field after staining with hematoxylin and eosin(mean ±SEM, N=12 rats/condition).

This note sets out measurements from patent US7511074B2, “Tetrafluorobenzyl derivatives and pharmaceutical composition for preventing and treating acute and chronic neurodegenerative diseases in central nervous system containing the same” (AmKor Pharma, Inc., priority 2002, dated 2009).

In the case of `O=C(O)c1cc(NCc2c(F)c(F)c(C(F)(F)F)c(F)c2F)ccc1O` [2-Hydroxy-TTBA, 2-hydroxy-5-(2,3,5,6-tetrafluoro-4-trifluoromethylbenzylamino)benzoic acid], the “mitochondrial ROS production in spinal cord neurons” value in assay [1] is listed as “significantly reduced mitochondrial ROS production”. For the same molecule, the “doses at which zinc-induced neuronal death was prevented” value in assay [2] lay in the range of 10 to 300 µM. For the same molecule, in assay [3], the “reduction of DPPH levels” value is listed as “reduced levels of DPPH at lower doses”. In assay [4], the “delayed neuronal cell death in the CA1 areas” value is on record as “prevented delayed neuronal cell death”.
